Measurements reported in patent US11413278B2, “Compounds and methods for promoting stress resistance” (priority 2015, dated 2022).
Entries after “also recorded” stand apart in the source; their conditions may differ. Where two headings read alike, the source gives them in different places.

Legend:
C. elegans = type: in vivo, Caenorhabditis elegans
Summary of the method: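 Worms treated in liquid with compounds in 96-well plates (4 wells each, FUdR to block progeny, 0.2% DMSO controls); H2O2 at 500 μM final added on day 4 of adulthood and viability scored daily.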

WI-38 cells = test: MMS resistance assay; type: cell-based, human; details: for fold induction at 10 µM: Homo sapiens, 12 h; for Assay 3: MMS-resistant / Assay 5: Triple resistant: YES/NO; for Assay 3: MMS-resistant: * indicates partial; for Assay 5: Triple resistant: H2O2, cadmium and MMS
Summary of the method: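 WI-38 cells were given compounds at five final concentrations (0.25–20 μM) in triplicate, followed by cadmium or MMS for 12 h. For MMS, medium was switched from OptiMEM+10% FBS to serum-free DMEM+2% BSA when compounds were added, 24 h before stressor. Two independent assays were run, analysed by global variance t-test.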

FOXO3 = test: qPCR analysis of FOXO3-regulated genes; type: cell-based, human; details: for Induction of at least two of five FOXO3-regulated genes (SOD2, GADD45A, CAT, DDB1, TXNIP): WI-38; for K = Sestrin induction: score; for fold induction at 10 µM: Homo sapiens
Summary of the method: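 WI-38 cells treated with compound at 10 μM for 24 h, followed by Cells-to-Ct RT-qPCR of FOXO3 target genes normalised to B2M, PPIA and GAPDH. FOXO3 or NRF2 dependence tested by prior 10 nM siRNA knockdown (36 h transfection, compound added ~24 h after replating).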

[1] = score in summary of 38 core set hits
[2] = 10 μM, 24 hrs, WI-38 cells, qPCR, normalized to B2M, n = 4
[3] = WI-38 cells, 10 μM, 24 hrs, n=4, qPCR normalized by B2M
[4] = fold change, qPCR, WI-38 cells, 10 μM, 24 hrs
[5] = qPCR, WI-38 cells, 10 μM, n=4, 24 hrs, normalized by B2M
[6] = Exp. 1, WI-38 cells, 10 uM, normalized ATP measurement, read-out: Exp. 1, under MMS stress treatment, at 10 uM (fold change)
[7] = Exp. 2, WI-38 cells, 10 uM, normalized ATP measurement, read-out: Exp. 2, under MMS stress treatment, at 10 uM (fold change)
[8] = 24 h, Assay 10(m), at 10 uM, qPCR, read-out: Induction of FOXO3-regulated genes: CAT normalized fold-change
[9] = 24 h, Assay 10(m), at 10 uM, qPCR, read-out: Induction of FOXO3-regulated genes: DDB1 normalized fold-change
[10] = 24 h, Assay 10(m), at 10 uM, qPCR, read-out: Induction of FOXO3-regulated genes: GADD45A normalized fold-change
[11] = 24 h, Assay 10(m), at 10 uM, qPCR, read-out: Induction of FOXO3-regulated genes: SOD2 normalized fold-change
[12] = 10 μM, 24 hrs, WI-38 cells, qPCR, normalized to B2M, n = 4, read-out: CAT expression, normalized fold change (FOXO3-regulated gene)
[13] = 10 μM, 24 hrs, WI-38 cells, qPCR, normalized to B2M, n = 4, read-out: GADD45A expression, normalized fold change (FOXO3-regulated gene)
[14] = WI-38 cells, 10 μM, 24 hrs, n=4, qPCR normalized by B2M, read-out: DDB1 Normalized fold change
[15] = WI-38 cells, 10 μM, 24 hrs, n=4, qPCR normalized by B2M, read-out: GADD45A Normalized fold change
[16] = WI-38 cells, 10 μM, 24 hrs, n=4, qPCR normalized by B2M, read-out: SESN1 Normalized fold change
[17] = fold change, qPCR, WI-38 cells, 10 μM, 24 hrs, read-out: Summary of effects on FOXO3-regulated genes: CAT
[18] = fold change, qPCR, WI-38 cells, 10 μM, 24 hrs, read-out: Summary of effects on FOXO3-regulated genes: GADD45A
[19] = qPCR, WI-38 cells, 10 μM, n=4, 24 hrs, normalized by B2M, read-out: CAT Normalized fold change
[20] = qPCR, WI-38 cells, 10 μM, n=4, 24 hrs, normalized by B2M, read-out: SOD2 Normalized fold change
[21] = qPCR, WI-38 cells, 10 μM, n=4, 24 hrs, normalized by B2M, read-out: TXNIP Normalized fold change

COc1cc2c(no[n+]2[O-])n2nnnc12 [O11]
H2O2-resistance assay, 1st experiment (C. elegans; 60 μM, in liquid, wild type, with FuDR): YES;
N = H2O2-resistance in woms (C. elegans; score): 0
L = H2O2-resistance in worms (C. elegans; summary score): 0
Exp. 1, under MMS stress treatment, at 10 uM (fold change) (WI-38 cells; Exp. 1, WI-38 cells, 10 uM, normalized ATP measurement): 0.97 fold change
Exp. 2, under MMS stress treatment, at 10 uM (fold change) (WI-38 cells; Exp. 2, WI-38 cells, 10 uM, normalized ATP measurement): 4.20 fold change
B = MMS resistant (WI-38 cells; [1]): 0
B = MMS resistant (WI-38 cells; summary score): 0
D = Triple resistant (WI-38 cells; summary score): 0
Induction of at least two of five FOXO3-regulated genes (SOD2, GADD45A, CAT, DDB1, TXNIP) (FOXO3; 10 μM, 24 hrs): significant induction; also recorded: significant, induction; also recorded: induce FOXO3-regulated genes
CAT expression, normalized fold change (FOXO3-regulated gene) (FOXO3; [2]): CAT 1.41, fold
DDB1 expression, normalized fold change (FOXO3-regulated gene) (FOXO3; [2]): DDB1 1.31, fold
SESN1 expression, normalized fold change (FOXO3-regulated gene) (FOXO3; [2]): SESN1 1.77, fold
TXNIP expression, normalized fold change (FOXO3-regulated gene) (FOXO3; [2]): TXNIP 1.35, fold
E = Potential FOXO3 Activation (FOXO3; 2-point score): 0
Induction of FOXO3-regulated genes: CAT normalized fold-change (FOXO3; Assay 10(m), at 10 uM, qPCR): CAT 1.41, fold-change
Induction of FOXO3-regulated genes: DDB1 normalized fold-change (FOXO3; Assay 10(m), at 10 uM, qPCR): DDB1 1.31, fold-change
Induction of FOXO3-regulated genes: SESN1 normalized fold-change (FOXO3; Assay 10(m), at 10 uM, qPCR): SESN1 1.77, fold-change
Induction of FOXO3-regulated genes: TXNIP normalized fold-change (FOXO3; Assay 10(m), at 10 uM, qPCR): TXNIP 1.35, fold-change
DDB1 Normalized fold change (FOXO3; [3]): 1.308 fold change
GADD45A Normalized fold change (FOXO3; [3]): 1.431 fold change
SESN1 Normalized fold change (FOXO3; [3]): 1.773 fold change
Summary of effects on FOXO3-regulated genes: CAT (FOXO3; [4]): CAT 1.41,
Summary of effects on FOXO3-regulated genes: DDB1 (FOXO3; [4]): DDB1 1.31,
Summary of effects on FOXO3-regulated genes: SESN1 (FOXO3; [4]): SESN1 1.77,
Summary of effects on FOXO3-regulated genes: TXNIP (FOXO3; [4]): TXNIP 1.35,
CAT Normalized fold change (FOXO3; [5]): 1.410
SOD2 Normalized fold change (FOXO3; [5]): 1.143
TXNIP Normalized fold change (FOXO3; [5]): 1.346
K = Sestrin induction (FOXO3): 1
E = Potential FOXO3 Activation (FOXO3; summary score): 0

CCCC(=O)Nc1ccc(-c2cn3cccc(C)c3n2)cc1 [O12]
H2O2-resistance assay, 1st experiment (C. elegans; in vivo): YES;
L = H2O2-resistance in worms (C. elegans; in vivo): 0
N = H2O2-resistance in woms (C. elegans; in vivo): 0
fold induction at 10 µM (WI-38 cells; [6]): 0.78
fold induction at 10 µM (WI-38 cells; [7]): 2
B = MMS resistant (WI-38 cells; [1]): 0
B = MMS resistant (WI-38 cells; summary score): 0
D = Triple resistant (WI-38 cells; summary score): 0
Induction of at least two of five FOXO3-regulated genes (SOD2, GADD45A, CAT, DDB1, TXNIP) (FOXO3; 10 μM, 24 hrs): significant induction
SOD2 expression, normalized fold change (FOXO3-regulated gene) (FOXO3; [2]): SOD2 1.52, fold
E = Potential FOXO3 Activation (FOXO3; 2-point score): 2
fold induction at 10 µM (FOXO3; [8]): 0.82
fold induction at 10 µM (FOXO3; [9]): 0.86
fold induction at 10 µM (FOXO3; [10]): 1.44
fold induction at 10 µM (FOXO3; [11]): 1.35
fold induction at 10 µM (FOXO3; [12]): 0.8
fold induction at 10 µM (FOXO3; [13]): 1.69
fold induction at 10 µM (FOXO3; [14]): 1.02
fold induction at 10 µM (FOXO3; [15]): 1.69
fold induction at 10 µM (FOXO3; [16]): 1.05
fold induction at 10 µM (FOXO3; [17]): 0.8
fold induction at 10 µM (FOXO3; [18]): 1.69
fold induction at 10 µM (FOXO3; [19]): 0.802
fold induction at 10 µM (FOXO3; [20]): 1.52
fold induction at 10 µM (FOXO3; [21]): 0.909
Summary of effects on FOXO3-regulated genes: SOD2 (FOXO3; [4]): SOD2 1.52,
K = Sestrin induction (FOXO3): 0
E = Potential FOXO3 Activation (FOXO3; summary score): 0

O=C(c1ccc([N+](=O)[O-])o1)N1CCc2ccccc21 [O13]
H2O2-resistance assay, 1st experiment (C. elegans; in vivo): YES;
L = H2O2-resistance in worms (C. elegans; in vivo): 0
N = H2O2-resistance in woms (C. elegans; in vivo): 0
fold induction at 10 µM (WI-38 cells; [6]): 1.11
fold induction at 10 µM (WI-38 cells; [7]): 2.24
Assay 3: MMS-resistant (WI-38 cells): YES
Assay 5: Triple resistant (WI-38 cells): YES
B = MMS resistant (WI-38 cells; [1]): 0
B = MMS resistant (WI-38 cells; summary score): 1
D = Triple resistant (WI-38 cells; summary score): 2
Induction of at least two of five FOXO3-regulated genes (SOD2, GADD45A, CAT, DDB1, TXNIP) (FOXO3; 10 μM, 24 hrs): significant induction; also recorded: significant, induction
E = Potential FOXO3 Activation (FOXO3; 2-point score): 0
fold induction at 10 µM (FOXO3; [8]): 1.33
fold induction at 10 µM (FOXO3; [9]): 1.27
fold induction at 10 µM (FOXO3; [10]): 1.2
fold induction at 10 µM (FOXO3; [12]): 1.33
fold induction at 10 µM (FOXO3; 10 μM, 24 hrs, WI-38 cells, qPCR, normalized to B2M, n = 4, read-out: DDB1 expression, normalized fold change (FOXO3-regulated gene)): 1.27
fold induction at 10 µM (FOXO3; [13]): 1.2
fold induction at 10 µM (FOXO3; [14]): 1.27
fold induction at 10 µM (FOXO3; [15]): 1.2
fold induction at 10 µM (FOXO3; [16]): 1.23
fold induction at 10 µM (FOXO3; [17]): 1.33
fold induction at 10 µM (FOXO3; fold change, qPCR, WI-38 cells, 10 μM, 24 hrs, read-out: Summary of effects on FOXO3-regulated genes: DDB1): 1.27
fold induction at 10 µM (FOXO3; [18]): 1.2
fold induction at 10 µM (FOXO3; [19]): 1.32
fold induction at 10 µM (FOXO3; [20]): 1.09
fold induction at 10 µM (FOXO3; [21]): 0.907
K = Sestrin induction (FOXO3): 0
E = Potential FOXO3 Activation (FOXO3; summary score): 0

Oc1ncnc2sc3c(c12)CCC3 [O14]
L = H2O2-resistance in worms (C. elegans; in vivo): 0
N = H2O2-resistance in woms (C. elegans; in vivo): 0
fold induction at 10 µM (WI-38 cells; [6]): 0.84
fold induction at 10 µM (WI-38 cells; [7]): 3.45
Assay 3: MMS-resistant (WI-38 cells): YES
Assay 5: Triple resistant (WI-38 cells): YES
B = MMS resistant (WI-38 cells; [1]): 0
B = MMS resistant (WI-38 cells; summary score): 1
D = Triple resistant (WI-38 cells; summary score): 2
Induction of at least two of five FOXO3-regulated genes (SOD2, GADD45A, CAT, DDB1, TXNIP) (FOXO3; 10 μM, 24 hrs): significant induction
E = Potential FOXO3 Activation (FOXO3; 2-point score): 0
fold induction at 10 µM (FOXO3; [11]): 1.06
fold induction at 10 µM (FOXO3; 24 h, Assay 10(m), at 10 uM, qPCR, read-out: Induction of FOXO3-regulated genes: TXNIP normalized fold-change): 1.27
fold induction at 10 µM (FOXO3; 10 μM, 24 hrs, WI-38 cells, qPCR, normalized to B2M, n = 4, read-out: TXNIP expression, normalized fold change (FOXO3-regulated gene)): 1.39
fold induction at 10 µM (FOXO3; [14]): 1.08
fold induction at 10 µM (FOXO3; [15]): 1.2
fold induction at 10 µM (FOXO3; [16]): 1.14
fold induction at 10 µM (FOXO3; fold change, qPCR, WI-38 cells, 10 μM, 24 hrs, read-out: Summary of effects on FOXO3-regulated genes: TXNIP): 1.39
fold induction at 10 µM (FOXO3; [19]): 1.03
fold induction at 10 µM (FOXO3; [20]): 1.27
fold induction at 10 µM (FOXO3; [21]): 1.39
K = Sestrin induction (FOXO3): 0
E = Potential FOXO3 Activation (FOXO3; summary score): 0
